The values below are quoted from earlier work in patent US6823530B2, “Antimicrobial treatment for swimwear” (Kimberly-Clark Worldwide, Inc., priority 2000, dated 2004).

Data set [1] relates to gram negative and positive bacteria.

Each structure is given as a SMILES string.

Regarding `CC1(C)C(=O)N(CO)C(=O)N1CO` [DMDM Hydantoin, DMDM (dimethyl dimethyl) Hydantoin], in data set [1], the “effectiveness against gram negative and positive bacteria” value was “highly effective”. Where the note is “held above room temperature (50° Celsius) for a long period of time”, the thermal stability result is listed as “does not break down”. Besides, the pH stability entry (wide pH range) is reported as “stable over a wide pH range”.
